ChEMBL document CHEMBL5126585, “Synthesis and evaluation of 1,2,3-dithiazole inhibitors of the nucleocapsid protein of feline immunodeficiency virus (FIV) as a model for HIV infection” (Bioorg Med Chem, 2022)

Key:
[1] = Therapeutic index, ratio of CC50 for cytotoxicity against IL2 independent FL-4 cells to EC50 for antiviral activity against Feline immunodeficiency virus infected in IL2 independent FL-4 cells; assay type: toxicity, cell-based; details: cat; read-out: Ratio CC50/EC50
[2] = test system: Feline immunodeficiency virus; assay: Antiviral activity against Feline immunodeficiency virus infected in IL2 independent FL-4 cells assessed as reduction in viral replication treated for 7 days with daily replacement by qRT-PCR analysis; assay type: functional, organism-based; details: FL-4, 168 h
[3] = Cytotoxicity against IL2 independent FL-4 cells assessed as reduction in cell viability measured after 7 days by MTT assay; assay type: toxicity, cell-based, Felis catus; details: cat, time 7 day
[4] = Cytotoxicity against FEA cells assessed as reduction in cell viability incubated for 24 hrs by MTT assay; assay type: toxicity, cell-based, Felis catus; details: cat
[5] = Cytotoxicity against CRFK cells assessed as reduction in cell viability incubated for 24 hrs by MTT assay; assay type: toxicity, cell-based, Felis catus; details: cat

SMILES	selectivity ratio [1]	EC50 [2]	CC50 at 168 h [3]	CC50 at 24 h [4]	CC50 at 24 h [5]
Clc1ccccc1/N=c1\ssnc1Cl	2.6	20000 nM	51 µM	25 µM	> 100 µM
FC(F)(F)Oc1ccc(/N=c2\ssnc2Cl)cc1	–	> 100000 nM	> 100 µM	> 100 µM	> 100 µM
COc1cccnc1/N=c1\ssnc1Cl	21	2900 nM	61 µM	37 µM	37 µM
COc1cccc(/N=c2\ssnc2Cl)n1	178	260 nM	47 µM	4.3 µM	34 µM
Cc1cc(/N=c2\ssnc2Cl)n[nH]1	600	83 nM	50 µM	55 µM	> 100 µM
Clc1ccc(/N=c2\ssnc2Cl)cc1	79	570 nM	45 µM	51 µM	> 100 µM
Clc1nss/c1=N\c1nccs1	1.6	3000 nM	4.7 µM	8.4 µM	7.6 µM
Clc1nss/c1=N\c1ccc(Oc2ccccc2)cc1	> 2.9	35000 nM	> 100 µM	> 100 µM	> 100 µM
N#Cc1c(Br)cccc1/N=c1\ssnc1Cl	3.5	15000 nM	53 µM	41 µM	38 µM
N#Cc1cccnc1/N=c1\ssnc1Cl	122	420 nM	51 µM	36 µM	3.1 µM
Fc1ccc(F)c(/N=c2\ssnc2Cl)c1	131	680 nM	89 µM	> 100 µM	> 100 µM
FC(F)(F)Oc1ccc(/N=c2\ssnc2Cl)cc1Br	–	> 100000 nM	> 100 µM	> 100 µM	> 100 µM
Clc1nss/c1=N\c1cccc(Br)c1	–	> 100000 nM	> 100 µM	> 100 µM	> 100 µM
FC(F)(F)c1ccc(/N=c2\ssnc2Cl)cc1	> 6.7	15000 nM	> 100 µM	> 100 µM	> 100 µM
Clc1nss/c1=N\c1ccccn1	105	380 nM	40 µM	4.6 µM	29 µM
N#Cc1ccc(/N=c2\ssnc2Cl)cc1	> 160	620 nM	> 100 µM	50 µM	31 µM
Clc1nss/c1=N\c1ccccc1Br	3.3	12000 nM	39 µM	> 100 µM	> 100 µM

SMILES	selectivity ratio [1]	EC50 [2]	CC50 at 168 h [3]	CC50 at 24 h [4]	CC50 at 24 h [5]
CCOc1cccnc1/N=c1\ssnc1Cl	90	550 nM	49 µM	45 µM	42 µM
Clc1nss/c1=N\c1cccc(Br)n1	92	480 nM	44 µM	52 µM	38 µM
CCCCOc1ccc(/N=c2\ssnc2Cl)cc1	> 3.8	26000 nM	> 100 µM	> 100 µM	> 100 µM
O=[N+]([O-])c1ccc(/N=c2\ssnc2Cl)cc1	170	290 nM	49 µM	50 µM	31 µM
Clc1nss/c1=N\c1ccc2c(c1)OCO2	2.5	20000 nM	49 µM	53 µM	44 µM
O=[N+]([O-])c1cccnc1/N=c1\ssnc1Cl	1.3	2000 nM	2.6 µM	6.1 µM	21 µM
Clc1nss/c1=N\c1ccc(I)cc1	129	380 nM	49 µM	44 µM	73 µM
Clc1nss/c1=N\c1ccc(Br)cc1	> 160	640 nM	> 100 µM	40 µM	> 100 µM
Clc1nss/c1=N\c1ccc(OCc2ccccc2)cc1	1.9	23000 nM	44 µM	74 µM	> 100 µM
Clc1nss/c1=N\c1cc(-c2ccccc2)nn1Cc1ccccc1	1.7	31000 nM	53 µM	29 µM	37 µM
Clc1nss/c1=N\c1cc(-c2ccccc2)n[nH]1	9.2	530 nM	4.9 µM	31 µM	18 µM
Fc1ccc(/N=c2\ssnc2Cl)cc1	> 100	980 nM	> 100 µM	> 100 µM	> 100 µM
Cc1cc(OC(F)(F)F)ccc1/N=c1\ssnc1Cl	–	> 100000 nM	> 100 µM	> 100 µM	> 100 µM
CSc1ccc(/N=c2\ssnc2Cl)cc1	2.4	21000 nM	51 µM	53 µM	43 µM
FC(F)(F)Oc1ccc(/N=c2\ssnc2Cl)cc1Cl	1	23000 nM	23 µM	> 100 µM	85 µM
Cc1cc(/N=c2\ssnc2Cl)n(Cc2ccccc2)n1	2.4	22000 nM	52 µM	30 µM	33 µM
